These results are taken from patent US20240173419A1, “CDK2 DEGRADERS AND USES THEREOF” (Kymera Therapeutics, Inc., priority 2022, published 2024).

Structures are written as SMILES.

The test deals with T1, CDK2 (Homo sapiens, UniProt P24941).
T1 construct: endogenous in cells; host or cells: MKN1 cells
Description: CDK2 degradation in MKN1 cells (AlphaLISA). In kind it is cell-based. More on the design: key to CDK2 degradation 14 h: Mean external-Abs DC50 (nM): A (<100 nM); B (≥100-500 nM); C (>500-1000 nM); D (>1000 nM); E (not achieved). To be noted: 14 h incubation; for DC50: read-out: CDK2 degradation 14 h: Mean external-Abs DC50. A digest of the protocol:
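DC50 from four-parameter logistic fit of AlphaLISA CDK2 signal, corrected for no-cell wells. Lysates came from MKN1 cells, 2e4 per well, exposed 14 h at 37° C to compound at 0.001 nM-10 μM (1:5 series, 11 doses) in 0.1% DMSO.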
(In general: In Alpha technology, singlet oxygen from a donor bead excites a nearby acceptor bead.)

The term DC50 denotes the concentration at which degradation of the target reaches its halfway point. As to `Cc1cc(S(=O)(=O)N2CCC(N(CC(F)F)CC3CCN(c4cccc5c4n(C)c(=O)n5C4CCC(=O)NC4=O)CC3)CC2)ccc1Nc1ncc2cc(Cl)c(=O)n(C3CCCC34CC4)c2n1` (stereo not shown) [I-353], the “CDK2 degradation 14 h: Average Dmax %” value was “D (D (<25%))” and the DC50 was above 1000 nM.
The matching figures for `Cc1cc(S(=O)(=O)N2CCC(CN(CC(F)(F)F)C3CCN(c4cccc5c4n(C)c(=O)n5C4CCC(=O)NC4=O)CC3)CC2)ccc1Nc1ncc2cc(Cl)c(=O)n(C3CCCC34CC4)c2n1` (stereo not shown) [I-354]: “D (D (<25%))” and above 1000 nM.
The matching figures for `Cc1cc(S(=O)(=O)N2CCC(N(C)CC3CCN(c4cccc5c4n(C)c(=O)n5C4CCC(=O)NC4=O)CC3)C(F)(F)C2)ccc1Nc1ncc2cc(Cl)c(=O)n(C3CCCC34CC4)c2n1` (stereo not shown) [I-355]: “D (D (<25%))” and above 1000 nM.
The matching figures for `Cc1cc(S(=O)(=O)N2CCC(CN(CC(F)F)C3CCN(c4cccc5c4n(C)c(=O)n5C4CCC(=O)NC4=O)CC3)CC2)ccc1Nc1ncc2cc(Cl)c(=O)n(C3CCCC34CC4)c2n1` (stereo not shown) [I-356]: “D (D (<25%))” and above 1000 nM.
As to `Cc1cc(S(=O)(=O)N2CCC(N(C)CC3(F)CCN(c4cccc5c4n(C)c(=O)n5C4CCC(=O)NC4=O)CC3)CC2)ccc1Nc1ncc2cc(Cl)c(=O)n(C3CCCC34CC4)c2n1` (stereo not shown) [I-357], the “CDK2 degradation 14 h: Average Dmax %” value was “B (B (>50% -75%))” and the “CDK2 degradation 14 h: Mean external-Abs DC50 (nM)” value is “E”.
Take `Cc1cc(S(=O)(=O)N2CCC(F)(CN(C)C3CCN(c4cccc5c4n(C)c(=O)n5C4CCC(=O)NC4=O)CC3)CC2)ccc1Nc1ncc2cc(Cl)c(=O)n(C3CCCC34CC4)c2n1` (stereo not shown) [I-358]: the “CDK2 degradation 14 h: Average Dmax %” value is on record as “B (B (>50% -75%))” and the DC50 is 500 to 1000 nM.
On the same counts, the results for `Cc1cc(S(=O)(=O)N2CCC(N(C)CC3CCN(c4cccc5c4n(C)c(=O)n5C4CCC(=O)NC4=O)CC3)CC2)ccc1Nc1ncc2cc(Cl)c(=O)n(C3CCCC34CC4)c2n1` (stereo not shown) [I-359] are “A (A (>75% o))” and below 100 nM.
The matching figures for `COc1ccc2c(c1N1CCC(N(C)CC3CCN(S(=O)(=O)c4ccc(Nc5ncc6cc(Cl)c(=O)n(C(C)C)c6n5)c(C)c4)CC3)CC1)n(C)c(=O)n2C1CCC(=O)NC1=O` (stereo not shown) [I-379]: “A (A (>75% o))” and below 100 nM.
The matching figures for `Cc1cc(S(=O)(=O)N2CCC3(CCN(c4cccc5c4n(C)c(=O)n5C4CCC(=O)NC4=O)CC3)CC2)ccc1Nc1ncc2cc(Cl)c(=O)n(C(C)C)c2n1` (stereo not shown) [I-380]: “D (D (<25%))” and above 1000 nM.
With `Cc1cc(S(=O)(=O)N2CCC3(CCN(CC4CCN(c5ccc6c(c5)n(C)c(=O)n6C5CCC(=O)NC5=O)CC4)CC3)CC2)ccc1Nc1ncc2cc(Cl)c(=O)n(C3CCCC3)c2n1` (stereo not shown) [I-381], the “CDK2 degradation 14 h: Average Dmax %” value is “A (A (>75% o))” and the DC50 is below 100 nM.
The matching figures for `Cc1cc(S(=O)(=O)N2CCC(N3CCC(CN(C)c4cccc5c4n(C)c(=O)n5C4CCC(=O)NC4=O)CC3)CC2)ccc1Nc1ncc2cc(C(F)F)c(=O)n(C3CCCC34CC4)c2n1` (stereo not shown) [I-383]: “A (A (>75% o))” and below 100 nM.
The matching figures for `Cc1cc(S(=O)(=O)N2CCN(CCC3CCN(c4cccc5c4n(C)c(=O)n5C4CCC(=O)NC4=O)CC3)CC2)ccc1Nc1ncc2cc(Cl)c(=O)n(C(C)C)c2n1` (stereo not shown) [I-393]: “B (B (>50% -75%))” and 100 to 500 nM.
The matching figures for `Cc1cc(S(=O)(=O)NCCN2CCN(CC3CCN(c4ccc5c(c4)n(C)c(=O)n5C4CCC(=O)NC4=O)CC3)CC2)ccc1Nc1ncc2cc(Cl)c(=O)n(C(C)C)c2n1` (stereo not shown) [I-397]: “A (A (>75% o))” and below 100 nM.
With `Cc1cc(S(=O)(=O)NCCCN2CCN(C3CCN(c4ccc5c(c4)n(C)c(=O)n5C4CCC(=O)NC4=O)CC3)CC2)ccc1Nc1ncc2cc(Cl)c(=O)n(C(C)C)c2n1` (stereo not shown) [I-398], the “CDK2 degradation 14 h: Average Dmax %” value is on record as “A (A (>75% o))” and the DC50 was below 100 nM.
The matching figures for `Cc1cc(S(=O)(=O)NCCCN2CCN(CC3CCN(c4ccc5c(c4)n(C)c(=O)n5C4CCC(=O)NC4=O)CC3)CC2)ccc1Nc1ncc2cc(Cl)c(=O)n(C(C)C)c2n1` (stereo not shown) [I-400]: “A (A (>75% o))” and below 100 nM.
On the same counts, the results for `Cc1cc(S(=O)(=O)NCCOCCOCCNC(=O)COc2ccc(C3CCC(=O)NC3=O)cc2)ccc1Nc1ncc2cc(Cl)c(=O)n(C3CCCC3)c2n1` (stereo not shown) [I-401] are “B (B (>50% -75%))” and below 100 nM.
On the same counts, the results for `Cc1cc(S(=O)(=O)NCCOCC2CCN(c3ccc(N4CCC(=O)NC4=O)cc3)CC2)ccc1Nc1ncc2cc(Cl)c(=O)n(C3CCCC3)c2n1` [I-409] are “C (C (>25% -50%))” and above 1000 nM.
`Cc1cc(S(=O)(=O)NCCCCCC2CCN(c3ccc(N4CCC(=O)NC4=O)cc3)CC2)ccc1Nc1ncc2cc(Cl)c(=O)n(C3CCCC3)c2n1` [I-410]: the “CDK2 degradation 14 h: Average Dmax %” value was “C (C (>25% -50%))” and the DC50 is above 1000 nM.
As to `Cc1cc(S(=O)(=O)NCCCCC2CCN(c3ccc(N4CCC(=O)NC4=O)cc3)CC2)ccc1Nc1ncc2cc(Cl)c(=O)n(C3CCCC3)c2n1` [I-411], the “CDK2 degradation 14 h: Average Dmax %” value was “C (C (>25% -50%))” and the DC50 was above 1000 nM.
For the compound `Cc1cc(S(=O)(=O)NCCCC2CCN(c3ccc(N4CCC(=O)NC4=O)cc3)CC2)ccc1Nc1ncc2cc(Cl)c(=O)n(C3CCCC3)c2n1` [I-412], the “CDK2 degradation 14 h: Average Dmax %” value is given as “C (C (>25% -50%))” and the DC50 was above 1000 nM.
On the same counts, the results for `Cc1cc(S(=O)(=O)NCCC2CCN(c3ccc(N4CCC(=O)NC4=O)cc3)CC2)ccc1Nc1ncc2cc(Cl)c(=O)n(C3CCCC3)c2n1` [I-413] are “B (B (>50% -75%))” and above 1000 nM.
On the same counts, the results for `Cc1cc(S(=O)(=O)N2CCC(CN(C)C3CCN(c4cccn5c(N6CCC(=O)NC6=O)cnc45)CC3)CC2)ccc1Nc1ncc2cc(Cl)c(=O)n(C3CCCC3)c2n1` [I-414] are “B (B (>50% -75%))” and 100 to 500 nM.
In the case of `Cc1cc(S(=O)(=O)N2CCC(CN(C)C3CCN(c4cccc5c(N6CCC(=O)NC6=O)cncc45)CC3)CC2)ccc1Nc1ncc2cc(Cl)c(=O)n(C3CCCC3)c2n1` [I-416], the “CDK2 degradation 14 h: Average Dmax %” value is “A (A (>75% o))” and the DC50 was below 100 nM.
The matching figures for `Cc1cc(S(=O)(=O)N2CC3(CC(OCCN4CCC(c5ccc6c(c5)n(C)c(=O)n6C5CCC(=O)NC5=O)CC4)C3)C2)ccc1Nc1ncc2cc(Cl)c(=O)n(C3CCCC3)c2n1` (stereo not shown) [I-418]: “C (C (>25% -50%))” and above 1000 nM.
On the same counts, the results for `Cc1cc(S(=O)(=O)N[C@H]2CC[C@H](OCCN3CCC(c4ccc5c(c4)n(C)c(=O)n5C4CCC(=O)NC4=O)CC3)CC2)ccc1Nc1ncc2cc(Cl)c(=O)n(C3CCCC3)c2n1` (stereo partly shown) [I-419] are “A (A (>75% o))” and below 100 nM.
The matching figures for `Cc1cc(S(=O)(=O)NCCCN(C)C2CCN(c3cccc4c3n(C)c(=O)n4C3CCC(=O)NC3=O)CC2)ccc1Nc1ncc2cc(Cl)c(=O)n(C3CCCC3)c2n1` (stereo not shown) [I-420]: “A (A (>75% o))” and below 100 nM.
With `Cc1cc(S(=O)(=O)N2CC(CN(C)C3CCN(c4cccc5c4n(C)c(=O)n5C4CCC(=O)NC4=O)CC3)C2)ccc1Nc1ncc2cc(Cl)c(=O)n(C3CCCC3)c2n1` (stereo not shown) [I-421], the “CDK2 degradation 14 h: Average Dmax %” value is “B (B (>50% -75%))” and the DC50 was 100 to 500 nM.
As to `Cc1cc(S(=O)(=O)N2CCC(CN(C)C3CN(c4cccc5c4n(C)c(=O)n5C4CCC(=O)NC4=O)C3)CC2)ccc1Nc1ncc2cc(Cl)c(=O)n(C3CCCC3)c2n1` (stereo not shown) [I-422], the “CDK2 degradation 14 h: Average Dmax %” value is reported as “C (C (>25% -50%))” and the “CDK2 degradation 14 h: Mean external-Abs DC50 (nM)” value is listed as “E”.
As to `Cc1cc(S(=O)(=O)N2CCC(CCN3CCN(c4cccc5c4n(C)c(=O)n5C4CCC(=O)NC4=O)CC3)CC2)ccc1Nc1ncc2cc(Cl)c(=O)n(C3CCCC3)c2n1` (stereo not shown) [I-423], the “CDK2 degradation 14 h: Average Dmax %” value is listed as “A (A (>75% o))” and the DC50 was below 100 nM.
Take `Cc1cc(S(=O)(=O)NCCO[C@H]2CC[C@H](CN3CCC(c4ccc5c(c4)n(C)c(=O)n5C4CCC(=O)NC4=O)CC3)CC2)ccc1Nc1ncc2cc(C(F)F)c(=O)n(C(C)C)c2n1` (stereo partly shown) [I-428]: the “CDK2 degradation 14 h: Average Dmax %” value is recorded as “A (A (>75% o))” and the DC50 was below 100 nM.
For `Cc1cc(S(=O)(=O)NCCO[C@H]2C[C@H](CN3CCC(c4ccc5c(c4)n(C)c(=O)n5C4CCC(=O)NC4=O)CC3)C2)ccc1Nc1ncc2cc(Cl)c(=O)n(C3CCCC3)c2n1` (stereo partly shown) [I-429], the “CDK2 degradation 14 h: Average Dmax %” value was “A (A (>75% o))” and the DC50 was below 100 nM.
On the same counts, the results for `Cc1cc(S(=O)(=O)NCCO[C@H]2CC[C@H](CN3CC(c4ccc5c(c4)n(C)c(=O)n5C4CCC(=O)NC4=O)C3)CC2)ccc1Nc1ncc2cc(Cl)c(=O)n(C3CCCC3)c2n1` (stereo partly shown) [I-430] are “A (A (>75% o))” and below 100 nM.
The matching figures for `Cc1cc(S(=O)(=O)NCCCN2CCN(CC3CCN(c4ccc5c(c4)n(C)c(=O)n5C4CCC(=O)NC4=O)CC3)CC2)ccc1Nc1ncc2cc(Cl)c(=O)n(C3CCCC3)c2n1` (stereo not shown) [I-431]: “A (A (>75% o))” and below 100 nM.
The matching figures for `Cc1cc(S(=O)(=O)NCCO[C@H]2CC[C@H](CN3CCN(c4ccc5c(c4)n(C)c(=O)n5C4CCC(=O)NC4=O)CC3)CC2)ccc1Nc1ncc2cc(Cl)c(=O)n(C3CCCC3)c2n1` (stereo partly shown) [I-432]: “A (A (>75% o))” and below 100 nM.
Turning to `Cc1cc(S(=O)(=O)NCCCN2CCC(OC3CCN(c4ccc5c(c4)n(C)c(=O)n5C4CCC(=O)NC4=O)CC3)CC2)ccc1Nc1ncc2cc(Cl)c(=O)n(C3CCCC3)c2n1` (stereo not shown) [I-433], the “CDK2 degradation 14 h: Average Dmax %” value was “A (A (>75% o))” and the DC50 was below 100 nM.
